{
  "source": "patent US12128029B2",
  "about": "“Treatment of idiopathic pulmonary fibrosis” (VICORE PHARMA AB, priority 2022, dated 2024)",
  "key": {"[1]": {"test_system": "model of obstructive lung disease (specifically COPD)", "conditions": "cited from earlier work"}, "[2]": {"assay": "Sensitivity of C21 and salts to light and water", "assay_type": "physicochemical", "conditions": "C21 and salts thereof"}, "subjects with IPF": {"test_system": "subjects with IPF", "assay": "Phase II, multi-centre, open-label, single-arm trial of the safety, efficacy and pharmacokinetics of C21 in subjects with IPF", "conditions": "for mean change in FVC from baseline: C21 100 mg b.i.d. orally (sodium salt capsules), observed data, FIG. 1", "protocol": "The primary objective of the study is/was to investigate the safety of C21, 200 mg daily dose (100 mg b.i.d.) administered orally to subjects with IPF. The secondary objectives are/were to evaluate the effect on lung function decline of C21 and the pharmacokinetics of C21 at the same daily dose. Exploratory objectives include the investigation of a range of laboratory parameters as potential biomarkers of inflammation and fibrosis.\nThe primary endpoint of the trial is the nature and frequency of adverse events occurring over the trial period.\nSecondary endpoints included changes from baseline in: • FVC (defined as the maximum amount of air that can be forcibly exhaled from the lungs after fully inhaling) at Weeks 12, 24 and 36; • plasma concentration of C21 and derived PK parameters evaluated in a sub-set of subjects.\nC21 has been administered twice daily to the subjects for 36 weeks as follows: • morning dose: two 50 mg capsules (100 mg C21 or placebo) to be taken with a glass of water after minimum 2 hours fasting; and • afternoon/evening dose: two 50 mg capsules (100 mg C21 or placebo) to be taken with a glass of water after minimum 2 hours fasting. Subjects are required not to eat anything for 1 hour after taking the study drug.\nThe patients were enrolled to receive C21 (100 mg b.i.d.) for 36 weeks in total."}, "patients with IPF": {"test_system": "patients with IPF", "conditions": "over the period of a year; cited from earlier work"}, "[3]": {"conditions": "interim analysis, 21 subjects, C21 100 mg b.i.d."}},
  "data": [
    {"smiles": "CCCCOC(=O)NS(=O)(=O)c1sc(CC(C)C)cc1-c1ccc(Cn2ccnc2)cc1", "note": "[C21, N-butyloxycarbonyl-3-(4-imidazol-1-ylmethylphenyl)-5-iso-butylthiophene-2-sulfonamide]", "values": [
      {"measurement": "effect on cigarette smoke-induced emphysema", "setting": "[1]", "value": "prevented cigarette smoke-induced emphysema"},
      {"measurement": "effect on lung functions", "setting": "[1]", "value": "improved lung functions"},
      {"measurement": "sensitivity to the combined presence of light and water", "setting": "[2]", "value": "extreme sensitivity"},
      {"measurement": "mean change in FVC from baseline", "setting": "subjects with IPF; 24 weeks", "value": "+250 mL"},
      {"measurement": "difference in mean FVC change versus expected mean decline in untreated patients", "setting": "subjects with IPF; 24 weeks, expected decline -120 mL, based on previously published IPF trials", "value": "+371 mL"},
      {"measurement": "mean change in FVC from baseline", "setting": "subjects with IPF; 36 weeks", "value": "+750 mL"},
      {"measurement": "difference in mean FVC change versus expected mean decline in untreated patients", "setting": "subjects with IPF; 36 weeks, expected decline -180 mL", "value": "+930 mL"},
      {"measurement": "gastrointestinal signals", "setting": "subjects with IPF; [3]", "value": "no gastrointestinal signals"},
      {"measurement": "overall safety profile", "setting": "subjects with IPF; [3]", "value": "no safety profile concerns"},
      {"measurement": "related serious adverse events", "setting": "subjects with IPF; [3]", "value": "no related serious adverse events"},
      {"measurement": "deaths in the ongoing trial", "setting": "subjects with IPF; reported to be due to COVID-19 and not related to C21", "value": 1},
      {"measurement": "p value of slope (change in FVC scaled to 24 weeks, by visit, observed cases) versus expected mean in untreated patients", "setting": "subjects with IPF; week 28", "value": 0.012},
      {"measurement": "p value of slope (change in FVC scaled to 24 weeks, by visit, observed cases) versus expected mean in untreated patients", "setting": "subjects with IPF; week 32", "value": 0.032},
      {"measurement": "p value of slope (change in FVC scaled to 24 weeks, by visit, observed cases) versus expected mean in untreated patients", "setting": "subjects with IPF; week 36", "value": 0.016}
    ]},
    {"smiles": "COC(=O)c1ccc2c(c1)NC(=O)/C2=C(\\Nc1ccc(N(C)C(=O)CN2CCN(C)CC2)cc1)c1ccccc1", "note": "[nintedanib]", "values": [
      {"measurement": "reduction in the rate of decline in lung function (FVC measurements)", "setting": "patients with IPF", "value": "approximately 50%"}
    ]},
    {"smiles": "Cc1ccc(=O)n(-c2ccccc2)c1", "note": "[pirfenidone]", "values": [
      {"measurement": "reduction in the rate of decline in lung function (FVC measurements)", "setting": "patients with IPF", "value": "approximately 50%"}
    ]}
  ]
}
